Measurements reported in publication PMC9967275, “Screening the Pathogen Box to Discover and Characterize New Cruzain and TbrCatL Inhibitors” (Pathogens, 2023).

Key:
[1] = molecular target: cruzain (Trypanosoma cruzi, UniProt P25779); experiment: biochemical; settings: for Cruzain 0’ Inhibition / Cruzain 10’ Inhibition: sheet "Screening results"
Method: (§1) Allison Doak and Prof. Brian Shoichet (University of California San Francisco, San Francisco, CA, USA) and Prof. Conor Caffrey (University of California San Diego, San Diego, CA, USA) generously provided recombinant cruzain and TbrCatL, respectively. In vitro activity of proteases cruzain and TbrCatL was assayed as previously described. Briefly, enzyme activity was measured by monitoring the cleavage of the fluorogenic substrate […] (Z-FR-AMC) at 25 °C. Fluorescence was monitored at 340/440 nm (excitation/emission) over 5–7 min in a Synergy2 Biotek plate reader. […] DMSO and 1 μM E-64 were employed as negative and positive controls, respectively, in all assays. Two conditions were employed for both enzymes: 10′ pre-incubation of the enzyme in the presence of the compound (10′ inc) and no pre-incubation (0′). Reported values correspond to the mean and standard error of the mean (SEM) and all analyses were performed using GraphPad Prism 6.0.
(§2) For the initial screening, compounds were assayed at 5 μM. […] IC50 curves were obtained from a non-linear fit of at least seven distinct compound concentrations, in triplicate. Reported IC50 values are the mean and SEM of two independent measurements.

[2] = molecular target: T1, TbrCatL (Trypanosoma brucei rhodesiense, UniProt Q95PM0); experiment: TbrCatL enzymatic inhibition assay (cleavage of fluorogenic substrate Z-FR-AMC); assay type: biochemical; settings: for TbrCatL 0’ Inhibition / TbrCatL 10’ Inhibition: sheet "Screening results"
T1 construct: Conor Caffrey (University of California San Diego)
T1 sequence (Q95PM0 entry or part of it): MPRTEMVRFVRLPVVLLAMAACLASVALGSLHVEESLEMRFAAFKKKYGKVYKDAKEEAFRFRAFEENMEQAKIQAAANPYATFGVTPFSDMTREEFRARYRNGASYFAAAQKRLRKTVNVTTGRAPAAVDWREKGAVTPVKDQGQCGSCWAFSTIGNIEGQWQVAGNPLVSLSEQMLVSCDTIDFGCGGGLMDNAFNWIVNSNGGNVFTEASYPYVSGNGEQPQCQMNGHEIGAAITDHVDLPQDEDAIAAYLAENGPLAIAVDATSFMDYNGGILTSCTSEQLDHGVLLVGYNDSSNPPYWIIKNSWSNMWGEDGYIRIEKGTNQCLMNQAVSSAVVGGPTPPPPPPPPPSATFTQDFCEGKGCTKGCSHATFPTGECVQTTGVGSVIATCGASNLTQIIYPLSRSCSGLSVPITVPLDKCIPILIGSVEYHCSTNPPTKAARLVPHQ
Method: as §1, §2

[3] = 0’ (no pre-incubation), sheet Screening results
[4] = 10’ (pre-incubation), sheet Screening results
[5] = 0’ (pre-incubation time), Pathogen Box screening results
[6] = 10’ (pre-incubation time), Pathogen Box screening results
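Also: at 5 µM compound concentration.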

cruzain, sequence (P25779 123-337 limits assumed): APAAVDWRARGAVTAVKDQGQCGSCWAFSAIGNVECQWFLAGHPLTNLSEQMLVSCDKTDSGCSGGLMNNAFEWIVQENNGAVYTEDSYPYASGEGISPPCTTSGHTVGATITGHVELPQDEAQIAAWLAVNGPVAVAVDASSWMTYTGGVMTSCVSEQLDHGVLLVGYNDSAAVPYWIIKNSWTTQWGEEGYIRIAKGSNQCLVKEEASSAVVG

Compound | Cruzain 0’ Inhibition ([1]; 0’ (pre-incubation time)) | Cruzain 10’ Inhibition ([1]; 10’ (pre-incubation time)) | TbrCatL 0’ Inhibition ([2]; 0’ (pre-incubation time)) | TbrCatL 10’ Inhibition ([2]; 10’ (pre-incubation time)) | Cruzain Inhibition 0’ [1, 3] | Cruzain Inhibition 10’ [1, 4] | TbrCatL Inhibition 0’ [2, 3] | TbrCatL Inhibition 10’ [2, 4] | also measured
CCc1ccc([C@@H]2C[C@H](C(F)(F)F)n3ncc(C(=O)NCc4ccc(OC)cc4)c3N2)cc1 [MMV687180] | -9% | -7% | -4.3% | -11% |  |  |  |  | 
CCCn1c(NC(=O)c2ccc3ccccc3n2)nc2ccccc21 [MMV1030799] | -3.4% | 2.4% | -8% | -11% |  |  |  |  | 
Nc1ncnc2c1ncn2C[C@@H](O)[C@@H](O)C(=O)O [MMV689255] |  |  |  |  | 18% | 2% | 3.4% | -1.3% | 
CN(C)c1cc(NC(=O)Nc2ccccc2)c2ccccc2n1 [MMV006901] |  |  |  |  | 13% | 24% | 9% | 20% | 
c1coc(CNc2nc(N3CCCCC3)nc3ccccc23)c1 [MMV676401] |  |  |  |  | 4.6% | 9% | 6.5% | 15% | 
COc1cc(OC)cc(C(=O)NCC2Cc3cc(Cl)cc(-c4ccncc4)c3O2)c1 (centres unmarked) [MMV007471] | 1.1% | 6% | 0.4% | -2% |  |  |  |  | 
COCC(C)NC(=O)CSc1ncnc2sc(-c3ccccc3)cc12 (centres unmarked) [MMV676536] |  |  |  |  | 18% | 16% | 13% | 33% | 
CNC1C(OC2C(OC3C(O)C(O)C(N=C(N)N)C(O)C3N=C(N)N)OC(C)C2(O)C=O)OC(CO)C(O)C1O (centres unmarked) [MMV688994] |  |  |  |  | -4% | -2.3% | 1.1% | 1.5% | 
CC(C)(C)OC(=O)N1CCN(c2nccc(-c3ccc(-c4ccc(Cl)cc4)s3)n2)CC1 [MMV688416] |  |  |  |  | 18% | 18% | 22% | 27% | 
FC(F)(F)c1ccc(N(c2cccnc2)C2CCN(c3ccc(C(F)(F)F)cn3)CC2)cc1 [MMV689243] | 2.3% | -3% | -9% | -5% |  |  |  |  | 
Cc1nn(C)cc1C(C)Nc1nncc(-c2ccc(C(F)(F)F)cc2)n1 (centres unmarked) [MMV019993] | -5% | -1.8% | 0.6% | -3.6% |  |  |  |  | 
CC(=O)N1CCN(c2ccc(Oc3ccc(Cl)cc3O)cc2)CC1 [MMV688330] |  |  |  |  |  |  |  |  | Cruzain Inhibition 0’ [1, 5]: -3%; Cruzain Inhibition 10’ [1, 6]: -11%; TbrCatL Inhibition 0’ [2, 5]: -8%; TbrCatL Inhibition 10’ [2, 6]: -10%
O=C1O[C@@H](COc2ccon2)CN1c1cc(F)c(C2=CCN(Cc3ccccc3)CC2)c(F)c1 [MMV687813] | 2.7% | 23% | 5.3% | -1% |  |  |  |  | 
COc1cccc(-c2cc3c(Nc4cccnc4)nccc3[nH]2)c1 [MMV392832] |  |  |  |  |  |  |  |  | Cruzain Inhibition 0’ [1, 5]: 8.5%; Cruzain Inhibition 10’ [1, 6]: -3.6%; TbrCatL Inhibition 0’ [2, 5]: 6%; TbrCatL Inhibition 10’ [2, 6]: -6.4%
COc1ccc(N(CCc2cccc(C)n2)C(C)=O)cc1 [MMV675995] | 2.8% | 1.9% | -3% | 19% |  |  |  |  | 
CCc1c(C)nc(-n2nc(C)cc2NC(=O)c2ccccc2SC)[nH]c1=O [MMV676477] |  |  |  |  | -0.2% | -11% | -4% | -17% | 

Compound | Cruzain 0’ Inhibition ([1]; 0’ (pre-incubation time)) | Cruzain 10’ Inhibition ([1]; 10’ (pre-incubation time)) | TbrCatL 0’ Inhibition ([2]; 0’ (pre-incubation time)) | TbrCatL 10’ Inhibition ([2]; 10’ (pre-incubation time)) | Cruzain Inhibition 0’ [1, 3] | Cruzain Inhibition 10’ [1, 4] | TbrCatL Inhibition 0’ [2, 3] | TbrCatL Inhibition 10’ [2, 4] | also measured
Oc1c(I)cc(I)c2cccnc12 [MMV002817] |  |  |  |  | 0.2% | -16% | 0.5% | -24% | 
Cc1ccc2nc(Cl)c(CNCc3cccs3)cc2c1 [MMV676439] |  |  |  |  | -0.1% | 6.5% | 5.4% | 5% | 
CC1(C)OB(O)c2ccc(C3=NOC(c4cc(Cl)c(F)c(Cl)c4)(C(F)(F)F)C3)cc21 (centres unmarked) [MMV687775] |  |  |  |  | 13% | -4% | -0.5% | -8% | 
CC(C(=O)Nc1ccc2oc(-c3ccncc3)nc2c1)c1ccccc1 (centres unmarked) [MMV688471] |  |  |  |  | 19% | 15% | 26% | 20% | 
CC(C)N=c1cc2n(-c3ccc(Cl)cc3)c3ccccc3nc-2cc1Nc1ccc(Cl)cc1 [MMV687800] |  |  |  |  | 23% | 10% | 1.1% | 3% | 
NC(=O)c1cc(-c2ccsc2)ccc1OCCOc1ccccc1 [MMV687138] | 2.4% | 4% | 0.2% | -2.4% |  |  |  |  | 
NCC(c1cccs1)S(=O)(=O)c1ccccc1 (centres unmarked) [MMV688557] |  |  |  |  |  |  |  |  | Cruzain Inhibition 0’ [1, 5]: 2.3%; Cruzain Inhibition 10’ [1, 6]: 0.1%; TbrCatL Inhibition 0’ [2, 5]: -0.6%; TbrCatL Inhibition 10’ [2, 6]: 1.2%
CO[C@@H](C(=O)N1Cc2[nH]nc(NC(=O)c3ccc(N4CCN(C)CC4)cc3)c2C1)c1ccccc1 [MMV676600] |  |  |  |  | 24% | 12% | 7.5% | 11% | 
COc1ccc(CCN2CCC(NCc3cccc(N(C)C)c3)CC2)cc1 [MMV011511] | 5.7% | 3.6% | 0.4% | 9% |  |  |  |  | 
Cc1cc(C)c2cc(C(=O)NC3CCCCCCC3)[nH]c2c1 [MMV687146] | 4.7% | 4.7% | -1.1% | -12% |  |  |  |  | 
Cc1cnc(N2CCN[C@@H](Cc3ccccc3)C2)nc1Oc1ccc(-n2ccnc2)cc1 [MMV687765] | 4.4% | 13% | 5% | 8.5% |  |  |  |  | 
Cc1cccc(Cn2ccc(NC(=O)c3ccc4c(c3)OCO4)n2)c1 [MMV676386] |  |  |  |  | 8% | 2.6% | 2.8% | 1.8% | 
O=C(Nc1ccccc1)c1ccc(-c2cc3ccncc3cc2OC2CCNCC2)s1 [MMV024035] | 5% | -6.5% | -3% | -5% |  |  |  |  | 
O=C(Nc1n[nH]c(=S)s1)c1cc(Br)ccc1Cl [MMV676492] |  |  |  |  |  |  |  |  | Cruzain Inhibition 0’ [1, 5]: 10%; Cruzain Inhibition 10’ [1, 6]: 27%; TbrCatL Inhibition 0’ [2, 5]: -16%; TbrCatL Inhibition 10’ [2, 6]: 35%
CNC(=O)c1cc(S(=O)(=O)N2CCN(c3ccccn3)CC2)cs1 [MMV020136] |  |  |  |  | 5% | 2% | -6.4% | -5.6% | 
COC(=O)c1ccc(F)cc1NS(=O)(=O)c1cccc(-c2cnn(Cc3ccccc3)c2)c1 [MMV688350] |  |  |  |  | -7% | -5% | 2% | -9% | 
